Patent US12286455B2, “Anthelmintic depsipeptide compounds” (BOEHRINGER INGELHEIM ANIMAL HEALTH USA INC., priority 2015, dated 2025)
In brackets after ≈: the same amount, converted by molar mass. Where two headings read alike, the source gives them in different places.

Legend:
Haemonchus contortus = experiment: Method A: development of L1 Haemonchus contortus larvae in microtitre plate; conditions: 96 h; for EC50: read-out: median EC50
Method: Twenty L1 Haemonchus contortus larvae were added to wells of a microtitre plate containing a nutrient medium and the test compound in DMSO. An analysis was conducted at 4 days to determine the extent of development of the larvae. Larvae exposed to DMSO alone served as controls. The potencies of the compounds were evaluated in an MIC90 and/or EC50 format.

[1] = amide bond, 24-membered ring, BOP-Cl/DIEA
[2] = system: Microfilaria of Dirofilaria immitis; experiment: Method B: survival of microfilaria of Dirofilaria immitis in microtitre plate; conditions: 72 h, read-out: median EC50, survival of microfilaria at 72 hours
[3] = the molecule shown is the open-chain precursor; amide bond; 24-membered ring; BOP-Cl/DIEA; DCM; 58.9 mM

## CC(C)C[C@H]1C(=O)O[C@H](C)C(=O)N(C)[C@@H](CC(C)(C)F)C(=O)O[C@H](Cc2ccc(N3CCOCC3)cc2)C(=O)N(C)[C@@H](CC(C)C)C(=O)O[C@H](C)C(=O)N(C)[C@@H](CC(C)(C)F)C(=O)O[C@H](Cc2ccc(N3CCOCC3)cc2)C(=O)N1C [Compound 6-18]
Haemonchus contortus
  EC50: 100 to 1000 nM
[1]; from H-MeLeu(4-F)-dPhLac(4-morpholinyl)-MeLeu-dLac-MeLeu(4-F)-dPhLac(4-morpholinyl)-MeLeu-dLac-OH?, DCM, 1.7 mM, 25.0 °C
  ring closure, yield after HPLC: 23%

## CC(C)C[C@H]1C(=O)O[C@H](C)C(=O)N(C)[C@@H](CC(C)(C)F)C(=O)O[C@H](Cc2ccc(C(F)(F)F)cc2)C(=O)N(C)[C@@H](CC(C)C)C(=O)O[C@H](C)C(=O)N(C)[C@@H](CC(C)(C)F)C(=O)O[C@H](Cc2ccc(C(F)(F)F)cc2)C(=O)N1C [Compound 4-18]
[2]
  EC50: < 100 nM
Haemonchus contortus
  EC50: 100 to 1000 nM
[1]; from H-MeLeu(4-F)-dPhLac(4-CF3)-MeLeu-dLac-MeLeu(4-F)-dPhLac(4-CF3)-MeLeu-dLac-OH?, DCM, 5.2 mM, 25.0 °C
  ring closure, yield after HPLC: 34%

## C[C@H]1OC(=O)[C@H](CC(C)(C)C)N(C)C(=O)[C@@H](Cc2ccc(OC(F)(F)F)cc2)OC(=O)[C@H](CC(C)(C)F)N(C)C(=O)[C@@H](C)OC(=O)[C@H](CC(C)(C)C)N(C)C(=O)[C@@H](Cc2ccc(OC(F)(F)F)cc2)OC(=O)[C@H](CC(C)(C)F)N(C)C1=O [Compound 5-32]
[2]
  EC50: 100 to 1000 nM
Haemonchus contortus
  EC50: 100 to 1000 nM
[1]; from H-MeLeu(4-F)-dPhLac(4-OCF3)-MeLeu(4-Me)-dLac-MeLeu(4-F)-dPhLac(4-OCF3)-MeLeu(4-Me)-dLac-OH, DCM, 4.17 mM
  ring closure, yield after HPLC: 59%

## CC(C)C[C@H]1C(=O)O[C@H](C)C(=O)N(C)[C@@H](CC(C)(C)F)C(=O)O[C@H](Cc2ccc(C3CCOCC3)cc2)C(=O)N(C)[C@@H](CC(C)C)C(=O)O[C@H](C)C(=O)N(C)[C@@H](CC(C)(C)F)C(=O)O[C@H](Cc2ccc(C3CCOCC3)cc2)C(=O)N1C [Compound 7-18]
[2]
  EC50: < 100 nM
Haemonchus contortus
  EC50: 1000 to 10000 nM
[1]; from H-MeLeu(4-F)-dPhLac(4-(oxan-4-yl))-MeLeu-dLac-MeLeu(4-F)-dPhLac(4-(oxan-4-yl))-MeLeu-dLac-OH, DCM, 10.75 mM, 0.0 °C
  ring closure, yield after HPLC: 60%

## CC(C)C[C@H]1C(=O)O[C@H](Cc2ccc(C3CCOCC3)cc2)C(=O)N(C)[C@@H](CC(C)C)C(=O)O[C@H](C)C(=O)N(C)[C@@H](CC(C)C)C(=O)O[C@H](Cc2ccc(C3CCOCC3)cc2)C(=O)N(C)[C@@H](CC(C)C)C(=O)O[C@H](C)C(=O)N1C [Compound 7-27]
[2]
  EC50: < 100 nM
Haemonchus contortus
  EC50: 1000 to 10000 nM
[1]; from H-MeLeu-dPhLac(4-oxan-4-yl)-MeLeu-dLac-MeLeu-dPhLac(4-oxan-4-yl)-MeLeu-dLac-OH?, 25.0 °C
  ring closure, yield after HPLC: 13%

## C[C@H]1OC(=O)[C@H](CC(C)(C)C)N(C)C(=O)[C@@H](Cc2ccc(C3CCOCC3)cc2)OC(=O)[C@H](CC(C)(C)F)N(C)C(=O)[C@@H](C)OC(=O)[C@H](CC(C)(C)C)N(C)C(=O)[C@@H](Cc2ccc(C3CCOCC3)cc2)OC(=O)[C@H](CC(C)(C)F)N(C)C1=O [Compound 7-32]
[2]
  EC50: < 100 nM
Haemonchus contortus
  EC50: < 100 nM
[1]; from H-MeLeu(4-F)-dPhLac(4-(oxan-4-yl))-MeLeu(4-Me)-dLac-MeLeu(4-F)-dPhLac(4-(oxan-4-yl))-MeLeu(4-Me)-dLac-OH, DCM, 25.0 mM
  ring closure, yield after HPLC: 61%

## H-MeLeu(4-F)-dPhLac(4-tBu)-MeLeu(4-Me)-dLac-MeLeu(4-F)-dPhLac(4-tBu)-MeLeu(4-Me)-dLac-OH
[3]
  ring closure, isolated yield: 55%

## CC(C)C[C@H]1C(=O)O[C@H](Cc2ccc(C(C)(C)C)cc2)C(=O)N(C)[C@@H](CC(C)(C)F)C(=O)O[C@H](C)C(=O)N(C)[C@@H](CC(C)C)C(=O)O[C@H](Cc2ccc(C(C)(C)C)cc2)C(=O)N(C)[C@@H](CC(C)(C)F)C(=O)O[C@H](C)C(=O)N1C [Compound 18-19]
[2]
  EC50: < 100 nM
Haemonchus contortus; read-out: median MIC90
  MIC90: 1 to 10 µM (≈ 1.1 to 11 µg/mL)
[1]; from H-MeLeu-dPhLac(4-tBu)-MeLeu(4-F)-dLac-MeLeu-dPhLac(4-tBu)-MeLeu(4-F)-dLac-OH, DCM, 0.9 mM
  ring closure, yield after HPLC: 13%
